“And” between values parts separate entries of the source, which are not always exact repeats. Identical values can stand only once. Like-named read-outs stand apart in the source and are kept apart here.
Legend:
C. auris Bdf1 BD2 = C. auris Bdf1 BD2 (Candidozyma auris (Candida auris), UniProt A0AAW0VEM6); experiment: HTRF assay, inhibition of H4ac4 peptide binding
Bmh1/Bmh2 = experiment: NanoBiT assay, control pair; assay type: cell-based, S. cerevisiae; parameters: Normalized nanoBiT signal: unit of the concentration uncertain
Protocol: Yeast strains were distributed in 96‐well microplates containing SC(MSG)‐U medium (SC‐U medium with 0.1% monosodium glutamate instead of ammonium sulfate as a nitrogen source) and grown at 30 °C. 40 µL of exponentially growing cells were transferred in white 96‐well half‐area microplates (ProxiPlate Plus, Greiner Bio‐One) previously filled with 40 µL per well of SC(MSG) containing 100 µM furimazine. The microplates were then incubated for 10 min in the dark before the luminescence signals were recorded using a microplate reader (Ensight, PerkinElmer). Luminescence measurements were performed for 1 s per well at a distance of 0.1 mm between the plate and the detector. The luminescence values were normalized with the optical density (OD600) of the corresponding cultures. For NanoBiT assays with BET inhibitors, yeast cultures were grown overnight at 30 °C in SC(MSG) medium in the presence of serial dilutions of 24c and I‐BET726. Overnight cultures were diluted 5 fold in SC(MSG) and incubated for 1 h before luminescence was recorded as previously indicated. Luminescence values for each condition were normalized using the average of the luminescence recorded for the Bdf1/Swc4 and Bmh1/Bmh2 controls.

human Brd4 BD2 = biological target: T1, human Brd4 BD2 (Homo sapiens, UniProt O60885); experiment: HTRF assay, inhibition of H4ac4 peptide binding; conditions: Brd4 BD2
T1 construct: GST‐tagged BD2 (residues 349–460) from human Brd4 (UniProt ID O60885); purchased Reaction Biology Corp

[1] = tested on: C. glabrata expressing humanized Bdf1 (Brd4 BDs); experiment: Growth inhibition in liquid media, humanized C. glabrata strains; conditions: for EC50: Nakaseomyces glabratus
Protocol: Growth on Liquid Media with C. glabrata Lab Strains: Cells were grown at 30 °C in SC+M+C‐U medium (SC medium with 5 mM methionine, 0.25 mM cysteine, without uracil) to an OD600 of 0.5–0.8. […] Plates were incubated at 30 °C and OD600 was measured using a Multiskan FC Microplate Photometer (Thermo Fisher).

[2] = read-out: HTRF signal, normalized (Figure 5A data)

C. auris Bdf1 BD2, sequence (A0AAW0VEM6 entry or part of it): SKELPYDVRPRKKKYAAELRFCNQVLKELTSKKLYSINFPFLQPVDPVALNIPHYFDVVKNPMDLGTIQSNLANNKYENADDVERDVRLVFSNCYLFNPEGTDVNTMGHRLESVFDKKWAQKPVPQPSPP

`CC(=O)N1c2ccc(-c3ccc(C(=O)O)cc3)cc2C(Nc2ccc(Cl)cc2)CC1C` (centres unmarked) [I-BET726] was tested, and the remaining activity at 0.0021 µM (C. auris Bdf1 BD2; CauBD2, 2.10 nM, read-out: HTRF signal, normalized (Figure 5A data)) was 97.4%, the remaining activity at 0.01311 µM (C. auris Bdf1 BD2; CauBD2, 13.11 nM, read-out: HTRF signal, normalized (Figure 5A data)) was 85.4% and the remaining activity at 0.03277 µM (C. auris Bdf1 BD2; CauBD2, 32.77 nM, read-out: HTRF signal, normalized (Figure 5A data)) was 75%. It also gave a remaining activity at 0.08192 µM (C. auris Bdf1 BD2; CauBD2, 81.92 nM, read-out: HTRF signal, normalized (Figure 5A data)) of 52.6%, a remaining activity at 0.2048 µM (C. auris Bdf1 BD2; CauBD2, 204.8 nM, read-out: HTRF signal, normalized (Figure 5A data)) of 31% and a remaining activity at 0.512 µM (C. auris Bdf1 BD2; CauBD2, 512 nM, read-out: HTRF signal, normalized (Figure 5A data)) of 12.9%. For the same molecule, the remaining activity at 3.2 µM (C. auris Bdf1 BD2; CauBD2, 3200 nM, read-out: HTRF signal, normalized (Figure 5A data)) was 5.12%, the remaining activity at 8 µM (C. auris Bdf1 BD2; CauBD2, 8000 nM, read-out: HTRF signal, normalized (Figure 5A data)) was 5.06% and the IC50 (C. auris Bdf1 BD2; Fig 5A, four replicates, read-out: IC50 (μM) BD2, C. aur. Bdf1) was 0.23 ± 0.02 µM. For the same molecule, the remaining activity at 0.00524 µM (C. auris Bdf1 BD2; [2]) was 90.6%, the remaining activity at 8 µM (C. auris Bdf1 BD2; [2]) was 2.46% and the “Normalized nanoBiT signal” value (Bmh1/Bmh2) was 108% and 107% and 96% and 97%. The “Normalized nanoBiT signal” value (Bmh1/Bmh2; Bmh1-LgBiT, Bmh2-SmBiT, 0.02441 (unit uncertain), Fig 4C) was 104% and 103% and 105% and 97%, the “Normalized nanoBiT signal” value (Bmh1/Bmh2; Bmh1-LgBiT, Bmh2-SmBiT, 0.09766 (unit uncertain), Fig 4C) was 105% and 106% and 103% and 100% and the “Normalized nanoBiT signal” value (Bmh1/Bmh2; Bmh1-LgBiT, Bmh2-SmBiT, 0.19531 (unit uncertain), Fig 4C) was 105% and 94% and 98%. The “Normalized nanoBiT signal” value (Bmh1/Bmh2; Bmh1-LgBiT, Bmh2-SmBiT, 0.39063 (unit uncertain), Fig 4C) was 110% and 103% and 98% and 96%, the “Normalized nanoBiT signal” value (Bmh1/Bmh2; Bmh1-LgBiT, Bmh2-SmBiT, 0.78125 (unit uncertain), Fig 4C) was 109% and 110% and 93% and 102% and the “Normalized nanoBiT signal” value (Bmh1/Bmh2; Bmh1-LgBiT, Bmh2-SmBiT, 1.56250 (unit uncertain), Fig 4C) was 115% and 111% and 95% and 99%. The “Normalized nanoBiT signal” value (Bmh1/Bmh2; Bmh1-LgBiT, Bmh2-SmBiT, 3.12500 (unit uncertain), Fig 4C) was 112% and 118% and 104% and 101%, the “inhibition of NanoBiT signal, Bmh1/Bmh2” value (Bmh1/Bmh2; unrelated control pair) was “not observed” and the “HTRF signal, normalized (Figure 5A data)” value (human Brd4 BD2; 0.0537 nM) was 102.97 and 106.08 and 108.84 and 105.09. The “HTRF signal, normalized (Figure 5A data)” value (human Brd4 BD2; 0.13 nM) was 103.72 and 102.37 and 103.68 and 103.57, the “HTRF signal, normalized (Figure 5A data)” value (human Brd4 BD2; 0.34 nM) was 94.46 and 91.58 and 95.80 and 94.95 and the “HTRF signal, normalized (Figure 5A data)” value (human Brd4 BD2; 0.84 nM) was 79.67 and 69.64 and 75.99 and 78.48. For the same molecule, the “HTRF signal, normalized (Figure 5A data)” value (human Brd4 BD2; 2.10 nM) was 45.84 and 41.04 and 44.03 and 46.83, the “HTRF signal, normalized (Figure 5A data)” value (human Brd4 BD2; 5.24 nM) was 8.26 and 9.91 and 8.75 and 10.80 and the “HTRF signal, normalized (Figure 5A data)” value (human Brd4 BD2; 32.77 nM) was 3.03 and 2.91 and 2.46 and 2.11. For the same molecule, the “HTRF signal, normalized (Figure 5A data)” value (human Brd4 BD2; 81.92 nM) was 2.74 and 1.64 and 1.67 and 2.48, the “HTRF signal, normalized (Figure 5A data)” value (human Brd4 BD2; 512 nM) was 2.01 and 2.50 and 2.14 and 2.65 and the “%Growth” value ([1]; Fig 3E, 50 µM, BDF1-hBD1-flag, Exp 1-3) was 2.33% and 1.84% and 1.76%. The “%Growth” value ([1]; Fig 3E, 50 µM, BDF1-hBD2-flag, Exp 1-3) was 3.8% and 4.25% and 4%, the “%Growth” value ([1]; Fig 3E, 50 µM, humanized BDF1-flag, Exp 1-3) was 0.38% and 2.64% and 0.389% and the “%Growth” value ([1]; Fig 3F, BDF1-hBD1-flag, 0.0137 µM) was 90.66% and 83.58% and 76.59%. For the same molecule, the “%Growth” value ([1]; Fig 3F, BDF1-hBD1-flag, 0.0412 µM) was 77.41% and 78.96% and 63.08%, the “%Growth” value ([1]; Fig 3F, BDF1-hBD1-flag, 0.1235 µM) was 61.07% and 68.69% and 57.31% and the “%Growth” value ([1]; Fig 3F, BDF1-hBD1-flag, 0.3704 µM) was 41.42% and 40.29% and 42%. The “%Growth” value ([1]; Fig 3F, BDF1-hBD1-flag, 1.1111 µM) was 16.57% and 19.25% and 16.52%, the “%Growth” value ([1]; Fig 3F, BDF1-hBD1-flag, 3.3333 µM) was 5.27% and 7.44% and 4.82% and the “%Growth” value ([1]; Fig 3F, BDF1-hBD2-flag, 0.0137 µM) was 47.68% and 58.64% and 43.37%. The “%Growth” value ([1]; Fig 3F, BDF1-hBD2-flag, 0.0412 µM) was 32.5% and 27.54% and 41.03%, the “%Growth” value ([1]; Fig 3F, BDF1-hBD2-flag, 0.1235 µM) was 16.07% and 15.16% and 20.65% and the “%Growth” value ([1]; Fig 3F, BDF1-hBD2-flag, 0.3704 µM) was 9.64% and 8.03% and 12.17%. For the same molecule, the “%Growth” value ([1]; Fig 3F, BDF1-hBD2-flag, 1.1111 µM) was 6.25% and 6.02% and 7.12%, the “%Growth” value ([1]; Fig 3F, BDF1-hBD2-flag, 3.3333 µM) was 4.46% and 5.24% and 6.4% and the “%Growth” value ([1]; Fig 3F, humanized BDF1-flag, 0.0137 µM) was 42.92% and 50.6% and 44.95%. The “%Growth” value ([1]; Fig 3F, humanized BDF1-flag, 0.0412 µM) was 25.63% and 22.37% and 34.68%, the “%Growth” value ([1]; Fig 3F, humanized BDF1-flag, 0.1235 µM) was 13.13% and 10.59% and 17.61% and the “%Growth” value ([1]; Fig 3F, humanized BDF1-flag, 0.3704 µM) was 5.63% and 5.85% and 8.26%. For the same molecule, the “%Growth” value ([1]; Fig 3F, humanized BDF1-flag, 1.1111 µM) was 2.92% and 3.13% and 4.77%, the “%Growth” value ([1]; Fig 3F, humanized BDF1-flag, 3.3333 µM) was 1.04% and 1.36% and 2.75% and the EC50 ([1]; read-out: EC50 (μM) growth inhibition, Fig 3F, strain bdf1-hBD1-FLAG) was 0.25 ± 0.03 µM. The EC50 ([1]; read-out: EC50 (μM) growth inhibition, Fig 3F, strain bdf1-hBD2-FLAG) was 0.019 ± 0.002 µM and the EC50 ([1]; read-out: EC50 (μM), C. glabrata (hum), Fig 5C, both BDs humanized) was 0.043 ± 0.024 µM.

Source: article PMC11904993, “Humanized Candida and NanoBiT Assays Expedite Discovery of Bdf1 Bromodomain Inhibitors With Antifungal Potential” (Advanced Science, 2025)
